Assay results reported in US8809341B2, “2,4-pyrimidinediamine compounds and uses as anti-proliferative agents” (Rigel Pharmaceuticals, Inc., priority 2003, dated 2014).

Columns and labels:
A549 cells = test: in vitro antiproliferation assay, A549 (lung); format: cell-based
Method in brief: (§1)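 Standard in vitro antiproliferation assays on tumour cell lines, including A549 and H1299 (both lung); IC50 values determined.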

H1299 cells = test: in vitro antiproliferation assay, H1299 (lung); format: cell-based
Method in brief: as §1

[1] = A549 (lung) cells, antiproliferation
[2] = H1299 (lung) cells, antiproliferation
[3] = IC50 class against A549 (lung) tumor cells
[4] = IC50 class against H1299 (lung) tumor cells

Row | Structure (SMILES) | IC50 (A549 cells; [1]) [µM] | IC50 (H1299 cells; [2]) [µM] | IC50 (A549 cells; [3]) [µM] | IC50 (H1299 cells; [4]) [µM]
1 | Cc1cc(C)cc(Nc2nc(Nc3cc(Cl)c(Cl)c(Cl)c3)ncc2F)c1 [compound 899] | ≤ 20 | ≤ 20 |  | 
2 | Cc1cc(C)cc(Nc2nc(Nc3cc(C)c(Cl)c(C)c3)ncc2F)c1 [compound 900] | > 20 | > 20 |  | 
3 | CNC(=O)COc1c(C)cc(Nc2ncc(F)c(Nc3cc(OC)cc(OC)c3)n2)cc1C [compound 902] | ≤ 20 | ≤ 20 |  | 
4 | COc1cc(Nc2ncc(F)c(N(C)c3ccc(OC)c(Cl)c3)n2)cc(OC)c1 [compound 903] | ≤ 20 | ≤ 20 |  | 
5 | COc1ccc(N(C)c2nc(Nc3cc(C)c(OC)c(Cl)c3)ncc2F)cc1Cl [compound 904] | > 20 | > 20 |  | 
6 | CNC(=O)COc1c(C)cc(Nc2ncc(F)c(N(C)c3ccc(OC)c(Cl)c3)n2)cc1C [compound 905] | ≤ 20 | ≤ 20 |  | 
7 | CNC(=O)COc1cccc(Nc2ncc(F)c(N(C)c3ccc(OC)c(Cl)c3)n2)c1 [compound 906] | ≤ 20 | ≤ 20 |  | 
8 | COc1ccc(N(C)c2nc(Nc3ccc(C)cc3)ncc2F)cc1Cl [compound 907] | > 20 | ≤ 20 |  | 
9 | COc1cc(N(C)c2nc(Nc3cc(C)cc(C)c3)ncc2F)ccc1Cl [compound 909] | ≤ 20 | ≤ 20 |  | 
10 | CNC(=O)COc1cccc(Nc2ncc(F)c(N(C)c3ccc(Cl)c(OC)c3)n2)c1 [compound 910] | ≤ 20 | > 20 |  | 
11 | Cc1cc(C)cc(Nc2ncc(F)c(N(C)c3cc(C)c(Cl)c(C)c3)n2)c1 [compound 912] | > 20 | > 20 |  | 
12 | CNC(=O)COc1cccc(Nc2ncc(F)c(N(C)c3cc(C)c(Cl)c(C)c3)n2)c1 [compound 913] | ≤ 20 | ≤ 20 |  | 
13 | Cc1cc(N(C)c2nc(Nc3cccc(-c4cnco4)c3)ncc2F)cc(C)c1Cl [compound 914] | > 20 | > 20 |  | 
14 | CNC(=O)COc1ccc(Nc2nc(Nc3ccc(OC)c(Cl)c3)ncc2F)cc1Cl [compound 917] | ≤ 20 | ≤ 20 |  | 
15 | CNC(=O)c1ccc(Nc2ncc(F)c(N(C)c3cc(C)c(Cl)c(C)c3)n2)cc1Cl [compound 921] | ≤ 20 | ≤ 20 |  | 
16 | COc1cc(Nc2nc(Nc3cccc(-c4ncco4)c3)ncc2F)cc(OC)c1OC [compound 932] | ≤ 20 | ≤ 20 |  | 
17 | COc1ccc(Nc2ncc(F)c(Nc3ccc(OCCCN4CCOCC4)c(C)c3)n2)cc1OC [compound 945] | ≤ 20 | ≤ 20 |  | 
18 | CCOC(=O)COc1cccc(Nc2ncc(F)c(Nc3cc(C)c(O)c(Cl)c3)n2)c1 [compound 952] | > 20 | ≤ 20 |  | 
19 | CC(C)c1cccc(Nc2ncc(F)c(Nc3cccc(C(C)C)c3)n2)c1 [compound 968] | > 20 | ≤ 20 |  | 
20 | COc1ccc(Nc2ncc(F)c(Nc3cccc(O)c3)n2)cc1OC [compound 969] | ≤ 20 | ≤ 20 |  | 

Row | Structure (SMILES) | IC50 (A549 cells; [1]) [µM] | IC50 (H1299 cells; [2]) [µM] | IC50 (A549 cells; [3]) [µM] | IC50 (H1299 cells; [4]) [µM]
21 | CNC(=O)COc1cccc(Nc2ncc(F)c(Nc3cccc(CN)c3)n2)c1 [compound 970] | ≤ 20 | ≤ 20 |  | 
22 | NC(=O)COc1ccc(Nc2nc(Nc3cccc(O)c3)ncc2F)cc1 [compound 974] | ≤ 20 | ≤ 20 |  | 
23 | O=C(COc1cccc(Nc2ncc(F)c(Nc3ccc(N4CCOCC4)cc3)n2)c1)NC1CC1 [compound 988] | ≤ 20 | ≤ 20 |  | 
24 | COC(=O)COc1cccc(Nc2ncc(F)c(Nc3ccc(N4CCOCC4)cc3)n2)c1 [compound 989] | ≤ 20 | ≤ 20 |  | 
25 | O=C(COc1cccc(Nc2ncc(F)c(Nc3ccc(N4CCOCC4)cc3)n2)c1)NC1CCC1 [compound 990] | ≤ 20 | ≤ 20 |  | 
26 | CNC(=O)COc1cccc(Nc2ncc(F)c(Nc3ccc(N4CCOCC4)cc3)n2)c1 [compound 992] | > 20 | > 20 |  | 
27 | CNC(=O)COc1cccc(Nc2ncc(F)c(Nc3ccc(N4CCN(C(=O)OC)CC4)cc3)n2)c1 [compound 993] | ≤ 20 | ≤ 20 |  | 
28 | Fc1cnc(Nc2cccc(-c3ncco3)c2)nc1Nc1cccc(-c2ncco2)c1 [compound 995] | ≤ 20 | ≤ 20 |  | 
29 | CCOC(=O)COc1cccc(Nc2ncc(F)c(Nc3cc(Cl)c(O)c(Cl)c3)n2)c1 [compound 999] | > 20 | > 20 |  | 
30 | O=C(COc1cccc(Nc2ncc(F)c(Nc3cc(Cl)c(O)c(Cl)c3)n2)c1)N1CCNCC1 [compound 1001] | > 20 | > 20 |  | 
31 | CC(C)(C)OC(=O)NCc1ccc(Nc2ncc(F)c(Nc3ccc(CNC(=O)OC(C)(C)C)cc3)n2)cc1 [compound 1012] | ≤ 20 | ≤ 20 |  | 
32 | NCc1ccc(Nc2ncc(F)c(Nc3ccc(CN)cc3)n2)cc1 [compound 1013] | ≤ 20 | ≤ 20 |  | 
33 | CC(C)(C)OC(=O)NCc1cccc(Nc2ncc(F)c(Nc3cccc(CNC(=O)OC(C)(C)C)c3)n2)c1 [compound 1015] | ≤ 20 | ≤ 20 |  | 
34 | CCN(CC)CCNC(=O)c1ccc(Nc2ncc(F)c(Nc3ccc(OC)c(Cl)c3)n2)cc1 [compound 1021] | ≤ 20 | ≤ 20 |  | 
35 | COc1ccc(Nc2nc(Nc3ccc(C(N)=O)cc3)ncc2F)cc1Cl [compound 1022] | ≤ 20 | ≤ 20 |  | 
36 | COc1ccc(Nc2nc(Nc3ccc(CNC(=O)OC(C)(C)C)cc3)ncc2F)cc1Cl [compound 1023] | ≤ 20 | ≤ 20 |  | 
37 | CNC(=O)COc1ccc(Nc2ncc(F)c(Nc3ccc(OC)c(Cl)c3)n2)cc1 [compound 1025] | > 20 | ≤ 20 |  | 
38 | NC(=O)c1ccc(Nc2nc(Nc3cccc(O)c3)ncc2F)cc1 [compound 1026] | > 20 | ≤ 20 |  | 
39 | NC(=O)c1ccc(Nc2nc(Nc3cc(Cl)c(O)c(Cl)c3)ncc2F)cc1 [compound 1027] | ≤ 20 | ≤ 20 |  | 
40 | COc1ccc(Nc2ncc(F)c(Nc3ccc(C(N)=O)cc3)n2)cc1Cl [compound 1028] | ≤ 20 | ≤ 20 |  | 

Row | Structure (SMILES) | IC50 (A549 cells; [1]) [µM] | IC50 (H1299 cells; [2]) [µM] | IC50 (A549 cells; [3]) [µM] | IC50 (H1299 cells; [4]) [µM]
41 | NC(=O)c1ccc(Nc2ncc(F)c(Nc3ccc(C(N)=O)cc3)n2)cc1 [compound 1029] | > 20 | > 20 |  | 
42 | CN(c1ccc(Cl)c(Cl)c1)c1nc(Nc2ccc(C(N)=O)cc2)ncc1F [compound 1030] | ≤ 20 | ≤ 20 |  | 
43 | CCN(CC)CCNC(=O)c1ccc(Nc2ncc(F)c(N(C)c3ccc(Cl)c(Cl)c3)n2)cc1 [compound 1031] | ≤ 20 | ≤ 20 |  | 
44 | COc1cc(Nc2nc(Nc3ccc(C(N)=O)cc3)ncc2F)ccc1Cl [compound 1032] | > 20 | > 20 |  | 
45 | COc1ccc(Nc2nc(Nc3ccc(C(N)=O)c(Cl)c3)ncc2F)cc1Cl [compound 1033] | ≤ 20 | ≤ 20 |  | 
46 | COc1cc(Nc2nc(Nc3ccc(C(N)=O)c(Cl)c3)ncc2F)ccc1Cl [compound 1034] | > 20 | ≤ 20 |  | 
47 | CCN(CC)CCNC(=O)c1ccc(Nc2ncc(F)c(Nc3ccc(Cl)c(OC)c3)n2)cc1 [compound 1035] | ≤ 20 | ≤ 20 |  | 
48 | NC(=O)c1ccc(Nc2ncc(F)c(Nc3ccccc3)n2)cc1 [compound 1036] | ≤ 20 | ≤ 20 |  | 
49 | CNc1ncc(F)c(N(C)c2ccc3c(c2)OCCO3)n1 [compound 1038] |  |  | ≤ 20 | ≤ 20
50 | CN(C)c1ncc(F)c(N(C)c2ccc3c(c2)OCCO3)n1 [compound 1039] |  |  | ≤ 20 | ≤ 20
51 | CN(c1ccc2c(c1)OCCO2)c1nc(NCCO)ncc1F [compound 1040] |  |  | ≤ 20 | ≤ 20
52 | CC(C)Nc1ncc(F)c(N(C)c2ccc3c(c2)OCCO3)n1 [compound 1041] |  |  | ≤ 20 | ≤ 20
53 | CN(c1ccc2c(c1)OCCO2)c1nc(N(CCO)CCO)ncc1F [compound 1042] |  |  | > 20 | ≤ 20
54 | C=CCNc1ncc(F)c(N(C)c2ccc3c(c2)OCCO3)n1 [compound 1043] |  |  | ≤ 20 | ≤ 20
55 | CNc1ncc(F)c(Nc2ccc3c(c2)OCCO3)n1 [compound 1044] |  |  | > 20 | > 20
56 | COc1ccc(Nc2ncc(F)c(Nc3ccc4c(c3)OCCO4)n2)c(C)c1 [compound 1046] |  |  | ≤ 20 | ≤ 20
57 | COc1ccc(C)c(Nc2ncc(F)c(Nc3ccc4c(c3)OCCO4)n2)c1 [compound 1047] |  |  | ≤ 20 | ≤ 20
58 | Cc1ccc(F)c(Nc2ncc(F)c(Nc3ccc4c(c3)OCCO4)n2)c1 [compound 1048] |  |  | ≤ 20 | ≤ 20
